“And” between values parts separate entries of the source, which are not always exact repeats. Equal values may be shown once. Each block holds one compound with its values, some of them ahead of it.
Experiments:
[1] = molecular target: HDAC1 (Homo sapiens, UniProt Q13547); assay: HDAC-Glo assay; type: biochemical; design: purchased BPS Bioscience 50051; conditions: sheet S2d
Protocol: (§1) To validate the inhibition of HDACs by LA and LM and elaborate on the structure-activity relationship (SAR) of enantiomers as well as oxidized versus reduced forms of the molecules, we performed enzyme activity assays for recombinant HDAC1,2,3,6,8 as well as FRET-based binding assay for recombinant HDAC10.
(§2) The experiments were performed according to ref. [48]. […] Drug dosing was performed with a D300e Digital Dispenser (Tecan). HDACs (7 ng/mL for HDAC1, 25 ng/mL for HDAC2, 200 ng/mL for HDAC3/Ncor2 complex, 100 ng/mL for HDAC6, 200 ng/mL for HDAC8) and inhibitors were incubated together at room temperature (RT) for 30 min. After the addition of the HDAC-Glo™ I/II reagent, plates were shaken (800 rpm orbital shaker, 30 s), centrifuged (300 g, 1 min), and incubated at RT for 30 min. Luminescence was detected with a CLARIOstar (BMG Labtech) plate reader.

[2] = molecular target: T1, HDAC8 (Homo sapiens, UniProt Q9BY41); assay: HDAC-Glo assay; type: biochemical; design: purchased BPS Bioscience 50008; conditions: sheet S2d
T1 sequence (Q9BY41 1-377): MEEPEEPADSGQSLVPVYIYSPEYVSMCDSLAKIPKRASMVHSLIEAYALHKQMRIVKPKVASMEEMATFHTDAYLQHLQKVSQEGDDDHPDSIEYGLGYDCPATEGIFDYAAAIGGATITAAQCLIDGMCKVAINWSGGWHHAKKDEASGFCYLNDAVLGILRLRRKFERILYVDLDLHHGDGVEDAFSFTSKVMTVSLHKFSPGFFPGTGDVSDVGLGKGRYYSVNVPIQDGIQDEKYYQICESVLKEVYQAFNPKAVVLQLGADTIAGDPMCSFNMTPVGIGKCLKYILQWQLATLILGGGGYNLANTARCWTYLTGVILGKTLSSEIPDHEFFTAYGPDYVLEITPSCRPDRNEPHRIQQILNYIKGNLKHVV
Protocol: as §1, §2

[3] = molecular target: T2, HDAC6 (Homo sapiens, UniProt Q9UBN7); assay: HDAC-Glo assay; type: biochemical; design: purchased BPS Bioscience 50006; conditions: sheet S2d
T2 sequence (Q9UBN7 1-1215): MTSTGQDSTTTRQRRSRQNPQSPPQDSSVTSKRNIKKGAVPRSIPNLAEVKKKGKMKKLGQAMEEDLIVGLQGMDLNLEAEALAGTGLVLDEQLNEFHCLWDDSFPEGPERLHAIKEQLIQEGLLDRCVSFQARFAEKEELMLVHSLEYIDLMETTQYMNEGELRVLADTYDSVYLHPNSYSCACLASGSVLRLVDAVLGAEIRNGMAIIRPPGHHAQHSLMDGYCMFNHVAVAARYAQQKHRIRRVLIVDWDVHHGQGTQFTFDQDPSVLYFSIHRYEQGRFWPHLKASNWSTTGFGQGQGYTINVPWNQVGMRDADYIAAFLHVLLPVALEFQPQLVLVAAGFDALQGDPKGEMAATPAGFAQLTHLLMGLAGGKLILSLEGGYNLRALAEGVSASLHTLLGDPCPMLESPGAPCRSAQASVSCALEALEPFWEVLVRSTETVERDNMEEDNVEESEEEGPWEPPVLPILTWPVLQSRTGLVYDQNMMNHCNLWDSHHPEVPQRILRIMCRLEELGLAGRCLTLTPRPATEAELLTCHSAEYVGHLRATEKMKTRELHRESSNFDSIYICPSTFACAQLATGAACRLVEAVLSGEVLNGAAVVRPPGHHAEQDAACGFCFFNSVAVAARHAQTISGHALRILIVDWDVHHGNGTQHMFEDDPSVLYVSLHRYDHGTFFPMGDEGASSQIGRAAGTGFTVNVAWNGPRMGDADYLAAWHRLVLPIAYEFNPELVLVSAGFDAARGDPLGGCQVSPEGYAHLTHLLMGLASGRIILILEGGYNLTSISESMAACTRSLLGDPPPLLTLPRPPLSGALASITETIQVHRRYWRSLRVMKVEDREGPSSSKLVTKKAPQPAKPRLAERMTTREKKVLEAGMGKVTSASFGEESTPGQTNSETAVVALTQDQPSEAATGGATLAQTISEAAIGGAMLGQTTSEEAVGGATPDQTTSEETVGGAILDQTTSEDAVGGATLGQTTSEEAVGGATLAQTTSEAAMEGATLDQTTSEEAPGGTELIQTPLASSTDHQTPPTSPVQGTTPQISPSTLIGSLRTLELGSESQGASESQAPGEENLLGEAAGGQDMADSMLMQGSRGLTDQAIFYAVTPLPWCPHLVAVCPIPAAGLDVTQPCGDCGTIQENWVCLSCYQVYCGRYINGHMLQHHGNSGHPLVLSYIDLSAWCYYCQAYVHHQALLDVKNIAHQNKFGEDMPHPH
Protocol: as §1, §2

[4] = molecular target: T3, TwinStrep-GST-HDAC10 (Homo sapiens, UniProt Q969S8); assay: HDAC10 TR-FRET assay; type: binding; conditions: sheet S2e
T3 sequence (Q969S8 1-669): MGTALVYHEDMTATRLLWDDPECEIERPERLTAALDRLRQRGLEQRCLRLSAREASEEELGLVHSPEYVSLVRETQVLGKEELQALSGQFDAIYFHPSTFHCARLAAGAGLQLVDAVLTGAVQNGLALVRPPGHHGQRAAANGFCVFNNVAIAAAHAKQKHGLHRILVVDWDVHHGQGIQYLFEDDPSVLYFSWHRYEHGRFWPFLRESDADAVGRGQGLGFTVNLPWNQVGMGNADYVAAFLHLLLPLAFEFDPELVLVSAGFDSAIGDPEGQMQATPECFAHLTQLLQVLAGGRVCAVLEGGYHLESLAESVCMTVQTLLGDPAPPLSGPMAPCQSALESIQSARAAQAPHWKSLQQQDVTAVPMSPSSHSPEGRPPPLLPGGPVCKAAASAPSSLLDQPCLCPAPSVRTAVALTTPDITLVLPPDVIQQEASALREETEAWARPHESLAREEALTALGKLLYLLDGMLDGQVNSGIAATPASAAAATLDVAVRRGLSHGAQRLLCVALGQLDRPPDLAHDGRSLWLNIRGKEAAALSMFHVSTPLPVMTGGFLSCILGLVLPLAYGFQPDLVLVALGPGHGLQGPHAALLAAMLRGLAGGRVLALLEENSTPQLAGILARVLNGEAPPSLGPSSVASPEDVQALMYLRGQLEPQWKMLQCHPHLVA
Protocol: as §1
Inhibitors with a D300e Digital Dispenser (Tecan). After drug dosing to the premixed assay reagents in buffer, plates were shaken (800 rpm orbital shaker, 30 s), centrifuged (300g, 1 min), and incubated at RT in the dark for 90 min. TR-FRET was measured with a CLARIOstar (BMG Labtech) plate reader, equipped with TR-FRET filters.

HDAC1, sequence (Q13547 whole entry): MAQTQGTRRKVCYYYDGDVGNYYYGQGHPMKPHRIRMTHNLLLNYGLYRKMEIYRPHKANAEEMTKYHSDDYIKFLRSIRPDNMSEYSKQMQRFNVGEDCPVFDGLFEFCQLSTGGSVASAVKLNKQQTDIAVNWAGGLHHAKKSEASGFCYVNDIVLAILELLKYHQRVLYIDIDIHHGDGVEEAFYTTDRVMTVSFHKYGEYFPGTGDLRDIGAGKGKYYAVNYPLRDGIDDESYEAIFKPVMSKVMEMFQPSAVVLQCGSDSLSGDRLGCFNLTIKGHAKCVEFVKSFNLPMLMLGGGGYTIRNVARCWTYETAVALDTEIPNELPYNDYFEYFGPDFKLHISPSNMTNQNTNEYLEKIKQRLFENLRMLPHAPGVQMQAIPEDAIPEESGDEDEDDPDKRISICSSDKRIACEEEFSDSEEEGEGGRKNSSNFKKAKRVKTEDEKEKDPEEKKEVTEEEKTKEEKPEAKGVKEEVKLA

- HDAC1 relative activity ([1]; log conc -3.30103): 2.768 and 2.872 and 2.683
- HDAC1 relative activity ([1]; log conc -3.82945): 9.265 and 8.951 and 9.199
- HDAC1 relative activity ([1]; log conc -4.35788): 26.7114 and 25.7521 and 27.3764
- HDAC1 relative activity ([1]; log conc -4.88629): 53.7175 and 53.6506 and 52.4863
- HDAC1 relative activity ([1]; log conc -5.41477): 84.4773 and 84.2156 and 82.4618
- HDAC1 relative activity ([1]; log conc -5.94309): 94.7528 and 92.6024 and 91.8471
- HDAC1 relative activity ([1]; log conc -6.47756): 99.9185 and 101.441 and 101.474
- HDAC1 relative activity ([1]; log conc -6.87615): 103.379 and 101.234 and 95.7354
- HDAC8 relative activity ([2]; log conc -3.30103): 5.5387 and 6.443 and 4.956
- HDAC8 relative activity ([2]; log conc -3.82945): 15.2478 and 14.986 and 14.6707
- HDAC8 relative activity ([2]; log conc -4.35788): 32.9883 and 33.8093 and 29.5437
- HDAC8 relative activity ([2]; log conc -4.88629): 65.7743 and 68.9393 and 55.1609
- HDAC8 relative activity ([2]; log conc -5.41477): 94.4673 and 96.4781 and 81.2779
- HDAC8 relative activity ([2]; log conc -5.94309): 99.9702 and 99.768 and 95.3061
- HDAC8 relative activity ([2]; log conc -6.47756): 102.1 and 101.594 and 89.0594
- HDAC8 relative activity ([2]; log conc -6.87615): 104.349 and 101.731 and 91.7247
- HDAC6 relative activity ([3]; log conc -3.30103): 1.901 and 1.871 and 1.9083
- HDAC6 relative activity ([3]; log conc -3.82945): 3.442 and 3.206 and 3.406
- HDAC6 relative activity ([3]; log conc -4.35788): 6.925 and 6.75 and 6.858
- HDAC6 relative activity ([3]; log conc -4.88629): 16.7633 and 15.9117 and 16.5726
- HDAC6 relative activity ([3]; log conc -5.41477): 38.1371 and 36.4753 and 35.86
- HDAC6 relative activity ([3]; log conc -5.94309): 60.9287 and 58.1296 and 64.9441
- HDAC6 relative activity ([3]; log conc -6.47756): 84.471 and 78.2193 and 82.7984
- HDAC6 relative activity ([3]; log conc -6.87615): 87.6459 and 83.3784 and 85.1621
Structure (SMILES): O=C(O)CCCCC(S)CCS (centres unmarked) [LAred]

- HDAC10 TR-FRET relative signal ([4]; log conc -5.74088): 12.9805 and 13.6219 and 13.4323
- HDAC10 TR-FRET relative signal ([4]; log conc -6.32148): 35.3961 and 30.9531 and 27.2587
- HDAC10 TR-FRET relative signal ([4]; log conc -6.92082): 58.0202 and 63.7897 and 66.3493
- HDAC10 TR-FRET relative signal ([4]; log conc -7.57349): 84.4678 and 78.5713 and 85.276
- HDAC10 TR-FRET relative signal ([4]; log conc -8.06198): 102.777 and 109.857 and 101.86
Structure (SMILES): O=C(O)CCCCC(S)CCS (centres unmarked) [R/S Lipoic Acid Reduced]
